Drawing on the NIST ThermoML archive (doi:10.1016/j.jct.2011.09.008), this text covers speed of sound for two compounds.

One may read the speed of sound as how fast a sound wave travels through the sample.

For series [1] the following is noted: 101 kPa, Liquid, Sing-around technique in a fixed-path interferometer.
Series [2] in a line: xn = mol fraction of the nth substance listed. The conditions noted are these: 283.15 K; 101 kPa; Liquid; Sing-around technique in a fixed-path interferometer; x2 = 0.

The structures appear in SMILES notation. Numbers after ± are expanded uncertainties.

Regarding `CCCOCC(C)O` (stereo unspecified) [1-propoxy-2-propanol], the speed of sound in series [1] (283.15 K) was found to be 1301.9 ± 1.5 m/s; in series [1] (288.15 K), 1283.2 ± 1.5 m/s; in series [1] (293.15 K), 1264.5 ± 1.5 m/s; in series [1] (298.15 K), 1245.8 ± 1.5 m/s; in series [1] (303.15 K), 1227.3 ± 1.5 m/s.

For the compound `O` [water] + CCCOCC(C)O, in series [2], the speed of sound was 1447.3 ± 1.2 m/s.
